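Results reflect a 48-hour exposure of cells in 96-well plates to compound at five concentrations. GI50 = concentration required for 50% inhibition of growth. TGI marks complete inhibition of growth.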
What was measured:
Experiment in all cases: inhibition of tumour cell growth, NCI panel, 48 h
[1] = system: A549 NSCLC
[2] = system: COLO 205 colon
[3] = system: HCC-2998 colon
[4] = system: HT29 colon
[5] = system: K-562 leukemia
[6] = system: KM12 colon
[7] = system: LOX IMVI melanoma
[8] = system: MDA-MB-435
[9] = system: MOLT-4 leukemia
[10] = system: NCI-H226 lung
[11] = system: OVCAR-3 ovarian
[12] = system: RPMI-8226 leukemia
[13] = system: RXF 393 renal
[14] = system: SF-268 CNS
[15] = system: SF-295 CNS
[16] = system: SK-MEL-5 melanoma
[17] = system: UACC-257 melanoma
[18] = system: HCT-15 colon

Structure (SMILES)	TGI [1] [µM]	TGI [2] [µM]	TGI [3] [µM]	TGI [4] [µM]	TGI [5] [µM]	TGI [6] [µM]	TGI [7] [µM]	TGI [8] [µM]	TGI [9] [µM]	TGI [10] [µM]	TGI [11] [µM]	TGI [12] [µM]	TGI [13] [µM]	TGI [14] [µM]	TGI [15] [µM]	TGI [16] [µM]	TGI [17] [µM]	TGI [18] [µM]	GI50 [7] [µM]	GI50 [10] [µM]
CCOC(=O)C(=[N+]=[N-])C(=O)CN1C(=O)C2CC(C)=C(C)CC2C1O (centres undefined)	> 100	> 100	> 100	> 100	> 100	> 100	> 100	> 100	> 100	> 100	> 100	> 100	> 100	> 100	> 100	> 100	> 100			
CCOC(=O)NC(C(=O)OCC)(N1CCN(c2cc3c(cc2F)c(=O)c(C(=O)O)cn3CC)CC1)C(F)(F)F (centres undefined)	> 100	> 100	> 100	> 100	> 100	> 100	> 100	> 100	> 100	> 100	> 100	> 100	> 100	> 100	> 100	> 100	> 100	> 100		
COC(=O)/C=C(/C(=O)OC)c1cc2ccc3c([nH]c4ccccc43)c(C)c-2c1	> 100	3.3	13	8.9	7.09	36.5	14.5	25.1	11.5	19.8	12	25.2	> 100	21.4	16.4	9.18	28.2	29		
O=C(O)CC1NC(/C(=C/c2ccccc2O)NC(=O)c2ccccc2)OC1=O (centres undefined)	> 100	> 100	> 100	> 100	> 100	> 100	> 100	> 100	> 100	> 79.5	> 61.2	> 100	99.2	> 45.1	> 95.7	> 100	> 100	> 100		
CN(C)CC1CCC/C(=C\c2ccc(OC(=O)/C=C/c3ccccc3)cc2)C1=O (centres undefined)	8.4	3.95	> 28.1	3.75	> 42.6	3.44	1.7	7.37	> 37.1	9.54	3.63	6.88	3.71	8.67	13.7	12.9	21.2	3.14		
CN1C(=O)C(C(N)=O)C2CC1(C)Oc1ccccc12 (centres undefined)	> 100	> 100	> 100	> 100	> 100	> 100	> 100	> 100	> 100	> 100	> 100	> 100	> 100	> 100		> 100	> 100	> 100		
O=[N+]1ON=C(c2ccccc2)C1=C1C(c2c(-c3ccccc3)no[n+]2[O-])=NON1[O-]	> 100	25.4	> 100	24.8	10.6	> 100	8.67	6.56	> 100	62.5	30.6	> 100	10.1	> 100	> 100	> 100	67.3			
COc1cccc(C2ON=C(c3ccccc3)N2C23CC4CC(CC(C4)C2)C3)c1 (centres undefined)	> 10	> 10	> 10	> 10	> 10	> 10	> 10	> 10	> 10	> 10	> 10	> 10	> 10	> 10	> 10	> 10	> 10	> 10		
O=C(NNCC(F)(F)F)c1ccncc1	> 100	> 100	> 100	> 100	> 100	> 100	> 100	> 100	> 100	> 100	> 100	> 100	> 100	> 100	> 100	> 100	> 100	> 100		
C[N+](C)(C)/N=C/c1ccc(O)c(O)c1	> 100	> 100	> 100	> 100	> 100	> 100	> 100	> 100	> 100	> 100	> 100	> 100	> 100	> 100	> 100	> 100	> 100	> 100		
c1cc2nnc1SCCCSc1ccc(nn1)SCCCSc1ccc(nn1)SCCCS2	> 100	> 100	> 100	> 100	> 100	> 100	> 100	> 100	> 100	> 100	> 100	> 100	> 100	> 100	> 100	> 100	> 100	> 100		
c1ccc(-c2nnc(SCc3c[nH]c4ccccc34)n2-c2ccccc2)cc1	> 100	> 100	> 100	> 100	> 100	> 100	> 100	> 100	> 100	> 100	> 100	> 100	52.5	> 100	> 100	61	> 100	> 100		
NC(=O)C(=CNC(=S)Nc1ccc(Cl)c(Cl)c1)C(N)=O	> 100	> 100	> 100	> 100	> 100	> 100	> 100	> 100	> 100	> 100	> 100	> 100	> 95.7	> 100	> 100	> 100	> 100	> 100		
CC(=O)OC12c3ccccc3-c3ccccc3C1C(C(=O)O)C2(Cl)C(=O)O (centres undefined)		> 10	> 10	> 10	> 10	> 10	> 10	> 10	> 10	> 10	> 10	> 10	> 10	> 10	> 10	> 10	> 10	> 10		
COC(CC1(/C=C/O[Si](C(C)C)(C(C)C)C(C)C)C(=O)N(COCC[Si](C)(C)C)c2ccccc21)OC (centres undefined)	> 100	> 100	> 100	> 100	> 100	> 100	52.9	60.9	> 100	> 100	38.3	> 100	29.5	38.4	22.5	> 100	> 100	> 100		
N#CCOc1ccc(/C=C/C(=O)c2ccc(Cl)cc2)cc1	> 100		98.8	> 100	> 100	73.5	37.5	> 100	> 100	> 100	> 100	> 100	38.5	> 100	53.9	43.6	> 100	> 100		
CCN1C(=O)/C(=C2\SC(c3ccccc3)(c3ccccc3)c3ccccc32)SC1=S	> 100	> 100	> 100	> 100	> 100	> 100	> 100	> 100	> 100	> 100	> 100	> 100	> 100	> 100	> 100	> 100	> 100	> 100		
O=C(Nc1nc(C23CC4CC(CC(C4)C2)C3)cs1)c1cc2cc(Cl)ccc2oc1=O	> 100	> 100	> 100	> 100	> 100	> 100	> 100	> 100	> 100	> 100	> 100	> 100	> 100		> 100	> 100	> 100	> 100		
CSc1c(C(=O)Nc2ccc(C)cc2)c(N)n(N)c(=O)c1C#N	> 100	> 100	> 100	> 100	> 100	> 100	> 100	> 100	> 100	> 100	> 100	> 100	> 100	> 100		> 100	> 100	> 100		
Cc1ccc(C2N=C(N)NC3=C2CCOc2c3ccc3ccccc23)cc1 (centres undefined)	> 64.6	> 61.6	76.4	> 66.7	> 44.1	> 51.1	38.9	> 23.4	> 74.8	> 88.4	21	> 63.2	97.9	> 75.6	62.2	30.9	> 65.7	> 60.1	9.98	28.1
COc1cc(C(=O)C2C(=O)c3ccccc3C2C2(O)c3ccccc3CC2C(O)c2cc(OC)c(OC)c(OC)c2)cc(OC)c1OC (centres undefined)	> 100	> 100	> 100	> 100	> 100	> 100	> 100	> 100	> 100	> 100	> 100	84.4	> 100	> 100	> 100	> 100	> 100	> 100		
N=C(N)SCc1cc(Cl)cc(Cl)c1O	53.9	33	31.9	32.1	41.5	33.7	36.2	38	50.8	43.1	31.4	47.5	46.8	58.3	55.7	31.9	31.6	46.8		
CC(C)COC(=O)OC(=O)c1ccc(N(C)Cc2cnc3nc(N)nc(N)c3n2)cc1	> 100	> 100	> 100	> 100	> 100	> 100	> 100	> 100	> 100	> 100	> 100	> 100	> 100	> 100	> 100	> 93.9	> 100	> 100		
